Assays:
[1] = target: T1, hEP3 subtype (hEP3α, hEP3-21 and hEP3-9 isoforms) (Homo sapiens, UniProt P43115); assay: [3H]PGE2 competition binding, value stated across the three hEP3 isoforms
T1 sequence (P43115 1-390): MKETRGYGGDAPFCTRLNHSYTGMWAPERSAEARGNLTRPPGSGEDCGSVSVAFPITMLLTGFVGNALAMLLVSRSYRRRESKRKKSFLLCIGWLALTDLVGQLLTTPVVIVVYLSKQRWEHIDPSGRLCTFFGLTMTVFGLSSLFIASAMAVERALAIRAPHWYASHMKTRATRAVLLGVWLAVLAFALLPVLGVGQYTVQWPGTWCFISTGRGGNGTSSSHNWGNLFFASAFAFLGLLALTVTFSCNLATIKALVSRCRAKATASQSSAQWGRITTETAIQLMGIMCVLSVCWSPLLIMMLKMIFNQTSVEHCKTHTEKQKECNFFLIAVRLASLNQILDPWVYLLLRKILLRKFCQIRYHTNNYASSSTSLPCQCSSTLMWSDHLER
Protocol: (§1) Mammalian cell transfectants are analyzed for both the levels of EP3 receptor activity and levels of EP3 protein by the following methods. Assessing EP3 receptor activity involves the direct introduction of a labelled ligand to the cells and determining the amount of specific binding of the ligand to the EP3-expressing cells. Binding assays for receptor activity are known in the art (Frey et al., 1993, Eur. J. Pharmacol., 244, pp 239-250).
The three cloned forms of the human prostaglandin E receptor EP3 subtype (hEP3a, hEP3-21 and hEP3-9) which differ in the carboxyl terminus region of the encoded protein were individually subcloned into the pcDNAlamp plasmid (Invitrogen) and transfected into COS-M6 cells using the DEAE-dextran method. The cells were maintained in culture for 72 hours, then harvested and membranes prepared by differential centrifugation (1000 x g for 10 minutes, then 100,000 x g for 30 minutes) following lysis of the cells by nitrogen cavitation. […] Incubations were conducted for 1 hour at room temperature prior to separation of the bound and free radioligand by rapid filtration as previously described (Frey et al., 1993).

hEP1 = target: T2, hEP1 (Homo sapiens, UniProt P34995); assay: Binding at the hEP1 subtype (comparison value); details: given for comparison
T2 sequence (P34995 1-402): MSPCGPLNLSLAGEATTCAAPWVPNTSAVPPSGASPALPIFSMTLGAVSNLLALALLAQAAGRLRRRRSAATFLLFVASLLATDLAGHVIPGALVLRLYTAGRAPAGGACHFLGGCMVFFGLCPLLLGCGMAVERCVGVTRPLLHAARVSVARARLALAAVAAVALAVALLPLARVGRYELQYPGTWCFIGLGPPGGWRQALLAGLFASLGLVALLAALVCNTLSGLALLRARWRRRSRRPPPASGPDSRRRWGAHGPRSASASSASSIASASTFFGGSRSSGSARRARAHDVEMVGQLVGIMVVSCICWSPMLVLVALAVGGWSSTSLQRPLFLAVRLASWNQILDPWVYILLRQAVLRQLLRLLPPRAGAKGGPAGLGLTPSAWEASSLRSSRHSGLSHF

hEP3α = target: T3, hEP3α (Homo sapiens, UniProt P43115); assay: [3H]PGE2 binding assay, membranes of pcDNAIamp-hEP3α transfected COS-M6 cells; details: for fold less active than PGE2: competition for [3H]PGE2 specific binding, relative to PGE2
T3 construct: a 1.9 kb full length human EP3α cDNA clone was plaque-purified; expressed in transfected cells; host or cells: COS-M6 cells (membranes), pcDNAIamp vector
T3 sequence (P43115 1-390): T1 sequence (P43115 1-390)
Protocol: as §1, with “cells.” for “cells. Binding assays for receptor activity are known in the art (Frey et al., 1993, Eur. J. Pharmacol., 244, pp 239-250).”
(§2) The three cloned forms of the human prostaglandin E receptor EP3 subtype (hEP3a, hEP3-21 and hEP3-9) which differ in the carboxyl terminus region of the encoded protein were individually subcloned into the pcDNAlamp plasmid (Invitrogen) and transfected into COS-M6 cells using the DEAE-dextran method. The cells were maintained in culture for 72 hours, then harvested and membranes prepared by differential centrifugation (1000 x g for 10 minutes, then 100,000 x g for 30 minutes) following lysis of the cells by nitrogen cavitation.

hEP3-21 = target: T4, hEP3-21 (Homo sapiens, UniProt P43115); assay: [3H]PGE2 binding assay, membranes of pcDNAIamp-hEP3-21 transfected COS-M6 cells; details: for fold less active than PGE2: competition for [3H]PGE2 specific binding, relative to PGE2
T4 construct: both a 1.7 kb full length human EP3-21 cDNA clone and a 1.4 kb full length human EP3-9 cDNA clone; expressed in transfected cells; host or cells: COS-M6 cells (membranes), pcDNAIamp vector
T4 sequence (P43115 1-388 isoform P43115-2): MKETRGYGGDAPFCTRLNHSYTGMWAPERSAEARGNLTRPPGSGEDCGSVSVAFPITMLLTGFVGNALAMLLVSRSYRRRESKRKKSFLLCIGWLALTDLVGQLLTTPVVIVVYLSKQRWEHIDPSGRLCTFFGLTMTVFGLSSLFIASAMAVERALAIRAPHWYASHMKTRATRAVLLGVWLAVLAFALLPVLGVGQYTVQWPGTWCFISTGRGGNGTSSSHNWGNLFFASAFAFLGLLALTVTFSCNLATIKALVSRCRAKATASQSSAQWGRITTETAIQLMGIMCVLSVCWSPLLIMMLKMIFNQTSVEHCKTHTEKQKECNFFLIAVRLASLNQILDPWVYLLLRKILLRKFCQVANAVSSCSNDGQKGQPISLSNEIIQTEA
Protocol: as §1, with “cells.” for “cells. Binding assays for receptor activity are known in the art (Frey et al., 1993, Eur. J. Pharmacol., 244, pp 239-250).”
as §2

hEP3-9 = target: T5, hEP3-9 (Homo sapiens, UniProt P43115); assay: [3H]PGE2 binding assay, membranes of hEP3-9 transfected COS-M6 cells; details: for fold less active than PGE2: competition for [3H]PGE2 specific binding, relative to PGE2
T5 construct: both a 1.7 kb full length human EP3-21 cDNA clone and a 1.4 kb full length human EP3-9 cDNA clone; expressed in transfected cells; host or cells: COS-M6 cells (membranes), pcDNAIamp vector
T5 sequence (P43115 1-365 isoform P43115-3): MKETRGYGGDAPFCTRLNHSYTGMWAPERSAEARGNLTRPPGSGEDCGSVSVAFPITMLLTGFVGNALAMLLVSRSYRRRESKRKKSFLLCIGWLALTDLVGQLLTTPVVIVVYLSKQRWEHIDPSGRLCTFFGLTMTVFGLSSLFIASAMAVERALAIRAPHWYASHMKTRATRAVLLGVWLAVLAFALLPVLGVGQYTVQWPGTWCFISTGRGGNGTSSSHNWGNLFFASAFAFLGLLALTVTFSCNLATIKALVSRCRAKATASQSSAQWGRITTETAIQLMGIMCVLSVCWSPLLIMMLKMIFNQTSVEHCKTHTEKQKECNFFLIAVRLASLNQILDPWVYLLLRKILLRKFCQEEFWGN
Protocol: as §1, with “cells.” for “cells. Binding assays for receptor activity are known in the art (Frey et al., 1993, Eur. J. Pharmacol., 244, pp 239-250).”
as §2

thromboxane receptor = target: T6, thromboxane receptor (Homo sapiens, UniProt P21731); assay: SQ-29548 binding to 293 cells and membranes transfected with thromboxane-receptor cDNA; details: human embryonic kidney 293 cells and membranes transfected with thromboxane-receptor cDNA
T6 construct: One full-length (≈ 2.9 kb) clone contained extensive 5' and 3' noncoding regions; expressed in transfected cells; host or cells: human embryonic kidney 293 cells and membranes
T6 sequence (P21731 1-343): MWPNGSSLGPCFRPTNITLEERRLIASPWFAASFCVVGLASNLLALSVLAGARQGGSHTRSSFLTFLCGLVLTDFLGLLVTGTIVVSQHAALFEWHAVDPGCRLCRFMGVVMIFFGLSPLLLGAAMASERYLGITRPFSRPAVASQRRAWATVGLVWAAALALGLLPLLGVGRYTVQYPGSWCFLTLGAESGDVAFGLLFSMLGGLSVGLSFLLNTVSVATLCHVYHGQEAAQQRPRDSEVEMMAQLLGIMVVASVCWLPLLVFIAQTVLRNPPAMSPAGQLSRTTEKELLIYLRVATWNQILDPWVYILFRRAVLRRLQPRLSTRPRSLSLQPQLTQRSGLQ
Excerpt: The thromboxane receptor has been expressed in Xenopus oocytes. It can couple with endogenous signal transduction components to elicit a calcium-activated Cl- current recorded by electrophysiological measurement using the procedure described by Hirata, M. et al., (1991), Nature, 349, pp. 617. Binding studies have been performed with COS-1 cell membranes transfected by thromboxane receptor cDNA using the ligand S-145 (Hirata, M. et al., (1991), Nature, 349, pp. 617). […] This level of expression is at least 5-10 times higher than in platelet membranes. On a per-cell basis assuming a 10% transfection efficiency, we estimate ≈ 10^6 binding sites/tranfected cell as compared to ≈ 1300 sites present on a platelet (Hourani, S.M.O, et al., (1991), Pharmacol. Rev., 43, pp. 243).

IC50 [1] [nM]	fold less active than PGE2 (hEP3α)	fold less active than PGE2 (hEP3-21)	fold less active than PGE2 (hEP3-9) [fold]	SMILES	further results
300 to 1200	–	–	–	CCCCC(C)(O)C/C=C/[C@H]1[C@H](O)CC(=O)[C@@H]1CCCCCCC(=O)OC (mixture of isomers) [misoprostol]	–
2000 to 7000	–	–	–	CC(C)Oc1ccc2c(=O)c3cc(C(=O)O)ccc3oc2c1 [AH6809]	fold less active at the hEP3 subtype as compared with the hEP1 subtype ([1]; hEP3 versus hEP1, in general): 5-10 fold; IC50 (hEP1): 500 nM
–	~2000 fold	~2000 fold	~500	CCCCC[C@H](O)/C=C/[C@H]1C(=O)C[C@H](O)[C@@H]1C/C=C\CCCC(=O)O [PGD2]	–
–	–	–	–	CCCCC[C@H](O)/C=C/[C@H]1[C@H](O)CC(=O)[C@@H]1CCCCCCC(=O)O [PGE1]	IC50 (hEP3α): ~1 nM; IC50 (hEP3-21): ~1 nM; IC50 (hEP3-9): ~1 nM
–	approximately 200 fold	approximately 200 fold	~65	CCCCC[C@H](O)/C=C/[C@@H]1[C@@H](C/C=C\CCCC(=O)O)[C@@H](O)C[C@H]1O [PGF2α]	–
–	–	–	–	O=C(O)CCC/C=C\C[C@@H]1[C@H](CNNC(=O)Nc2ccccc2)[C@H]2CC[C@@H]1O2 [SQ-29548]	binding (thromboxane receptor): high affinity binding
